# Experimental data from US12226459B2, “Collagen hydrolysate for use in prevention and/or treatment of post intensive care syndrome (pics)” (ROUSSELOT B.V., priority 2022, dated 2025).
# System: PICS mouse model
# Assay: PICS score in PICS mouse model (sepsis/ICU-care model)
# Type: in vivo
# Details: follow-up study; fluoxetine 20 mg/kg, whey protein 1.8 g/kg, daily oral gavage; in contrast to collagen hydrolysate
# Experimental: A validated PICS mouse model was used, which is based on the model of Hujinami et al. (J Clin Med. 2021 April; 10(8): 1593.). The model is proven to induce PICS by mimicking ICU care following polymicrobial sepsis. This is achieved by intraperitoneal injection with cecal slurry followed by other typical ICU-related interventions (i.e. antibiotics and saline administration) for 72 h. The model incorporates a specific combination of physical (grip strength test), mental (anxiety level), and cognitive (discrimination index, habituation index, exploration time) parameters that often characterize PICS.
# The development of PICS in the model was first confirmed in a pilot study (not shown herein). The mice develop PICS after ˜1 week.
# The mice (C57BL6J, Charles River laboratories, France) receive collagen hydrolysate (“CH”, Peptan, Porcine ˜1800 Da, Rousselot B. V.) or the relevant controls according to the following experimental groups: • 1. No PICS+vehicle (saline), i.e. “Control” • 2. PICS+vehicle (saline), i.e. “PICS” • 3. PICS+CH 1.8 g/kg (˜10 g clinical dose), i.e. “PICS+low dose CH” • 4. PICS+CH 8 g/kg (˜44 g clinical dose), i.e. “PICS+high dose CH”
# The mice are administered once a day from day 12 through day 47.
# Treatment is started 4 days after the induction of PICS. The CH or vehicle is administered by daily oral gavage for a duration of […] (day 12-47). […]
compound,measurement,value
CNCCC(Oc1ccc(C(F)(F)F)cc1)c1ccccc1 (stereo not shown) [fluoxetine],improvement in PICS score,little/no improvement
